Where “and” joins values, the source holds several entries; their conditions need not be identical. Equal values may be shown once.
Assays:
[1] = biological target: T1, Inhibitor of nuclear factor kappa-B kinase subunit beta (Homo sapiens, UniProt O14920); test: Inhibitory activity against IKK2
T1 sequence (O14920 whole entry): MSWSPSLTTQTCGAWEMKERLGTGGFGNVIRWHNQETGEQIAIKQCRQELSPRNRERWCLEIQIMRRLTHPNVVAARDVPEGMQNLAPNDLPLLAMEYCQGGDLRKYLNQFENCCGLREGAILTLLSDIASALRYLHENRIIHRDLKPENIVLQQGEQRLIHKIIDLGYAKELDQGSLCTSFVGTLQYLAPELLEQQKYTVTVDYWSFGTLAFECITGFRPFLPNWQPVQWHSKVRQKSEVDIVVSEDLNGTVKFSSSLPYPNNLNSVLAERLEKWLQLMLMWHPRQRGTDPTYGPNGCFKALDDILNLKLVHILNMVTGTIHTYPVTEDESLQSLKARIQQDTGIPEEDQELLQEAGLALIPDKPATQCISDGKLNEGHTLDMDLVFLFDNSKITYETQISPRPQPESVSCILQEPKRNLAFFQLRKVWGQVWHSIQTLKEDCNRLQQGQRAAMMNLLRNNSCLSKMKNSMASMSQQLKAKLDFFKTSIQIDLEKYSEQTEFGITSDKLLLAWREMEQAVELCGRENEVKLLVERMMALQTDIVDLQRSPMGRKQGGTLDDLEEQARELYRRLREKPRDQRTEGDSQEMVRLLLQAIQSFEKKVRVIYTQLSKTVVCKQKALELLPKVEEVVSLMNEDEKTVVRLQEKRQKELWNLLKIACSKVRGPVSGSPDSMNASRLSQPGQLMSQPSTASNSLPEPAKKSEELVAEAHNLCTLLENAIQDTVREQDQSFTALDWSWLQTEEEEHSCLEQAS

[2] = biological target: T2, Inhibitor of nuclear factor kappa-B kinase subunit alpha (Homo sapiens, UniProt O15111); test: Inhibitory activity against IKK1
T2 sequence (O15111 whole entry): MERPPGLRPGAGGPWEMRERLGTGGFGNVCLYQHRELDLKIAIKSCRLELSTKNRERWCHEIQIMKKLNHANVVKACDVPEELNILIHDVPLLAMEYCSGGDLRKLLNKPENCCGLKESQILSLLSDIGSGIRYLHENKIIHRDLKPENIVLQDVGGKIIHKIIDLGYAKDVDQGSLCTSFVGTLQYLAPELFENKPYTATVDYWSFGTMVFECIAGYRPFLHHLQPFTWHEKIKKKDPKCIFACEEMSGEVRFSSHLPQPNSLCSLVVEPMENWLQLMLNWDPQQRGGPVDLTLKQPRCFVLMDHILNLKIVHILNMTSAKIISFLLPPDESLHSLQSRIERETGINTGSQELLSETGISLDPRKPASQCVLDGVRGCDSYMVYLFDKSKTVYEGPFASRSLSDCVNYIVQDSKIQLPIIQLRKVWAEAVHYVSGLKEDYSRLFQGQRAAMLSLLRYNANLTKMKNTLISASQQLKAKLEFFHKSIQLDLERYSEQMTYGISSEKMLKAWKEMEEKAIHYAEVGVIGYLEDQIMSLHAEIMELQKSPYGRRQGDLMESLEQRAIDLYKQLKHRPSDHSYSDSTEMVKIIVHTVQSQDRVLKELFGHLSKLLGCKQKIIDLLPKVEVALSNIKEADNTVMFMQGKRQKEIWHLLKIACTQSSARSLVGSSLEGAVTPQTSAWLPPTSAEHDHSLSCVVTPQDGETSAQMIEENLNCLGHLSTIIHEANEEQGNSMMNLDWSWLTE

Homo sapiens = organism: Homo sapiens; test: Selectivity for IKK2/IKK1

Compound	IC50 [1]	IC50 [2]	Selectivity (Homo sapiens)
O=[N+]([O-])c1ccc(Nc2nccc(-c3ccc(S(=O)(=O)N4CCNCC4)cc3)n2)cc1	66 nM	6920 nM	105
NS(=O)(=O)c1ccc(Nc2nccc(-c3ccc(S(=O)(=O)N4CCNCC4)cc3)n2)cc1	11 nM	245 nM	21
CC(=O)c1cc2cc(-c3ccc(Nc4nccc(-c5ccc(S(=O)(=O)N6CCNCC6)cc5)n4)cc3)ccc2o1	26 nM	1700 nM	65
NC(=O)c1c[nH]c2ccc(-c3ccc(Nc4nccc(-c5ccc(S(=O)(=O)N6CCNCC6)cc5)n4)cc3)cc12	550 nM and 146 nM	–	6
NC(=O)c1ccc(Nc2nccc(-c3ccc(S(=O)(=O)N4CCNCC4)cc3)n2)cc1	48 nM	3980 nM	83
O=S(=O)(c1ccc(-c2ccnc(Nc3ccccc3)n2)cc1)N1CCNCC1	91 nM	1170 nM	13
O=S(=O)(c1ccc(-c2ccnc(Nc3ccc(C(F)(F)F)cc3)n2)cc1)N1CCNCC1	513 nM	3980 nM	8
C[S+]([O-])c1ccc(Nc2nccc(-c3ccc(S(=O)(=O)N4CCNCC4)cc3)n2)cc1 (stereo unspecified)	91 nM	2340 nM	26
N#Cc1cccc(Nc2nccc(-c3ccc(S(=O)(=O)N4CCNCC4)cc3)n2)c1	83 nM	5130 nM	62

Second part, the compound after the results:

IC50 [1]	IC50 [2]	Selectivity (Homo sapiens)	Compound
117 nM	4070 nM	–	O=S(=O)(c1ccc(-c2ccnc(Nc3cc(F)cc(F)c3)n2)cc1)N1CCNCC1
145 nM	155 nM	1	COc1cc(Nc2nccc(-c3ccc(S(=O)(=O)N4CCNCC4)cc3)n2)cc(OC)c1OC
309 nM	2690 nM	9	CCCCc1ccc(Nc2nccc(-c3ccc(S(=O)(=O)N4CCNCC4)cc3)n2)cc1
269 nM	2090 nM	–	Cc1ccc(Nc2nccc(-c3ccc(S(=O)(=O)N4CCNCC4)cc3)n2)cc1
155 nM	1480 nM	10	NC(=O)Nc1ccc(Nc2nccc(-c3ccc(S(=O)(=O)N4CCNCC4)cc3)n2)cc1
214 nM	1230 nM	–	COc1ccc(Nc2nccc(-c3ccc(S(=O)(=O)N4CCNCC4)cc3)n2)cc1

Reference: ChEMBL document CHEMBL1146833, “A novel series of potent and selective IKK2 inhibitors” (Bioorg Med Chem Lett, 2004)
